The record followed here is US7557129B2, “Cyanopyridine derivatives useful in the treatment of cancer and other disorders” (Bayer Healthcare LLC, priority 2003, dated 2009).

As to `N#Cc1cc(Oc2ccc(NC(=O)Nc3ccnc(C(F)(F)F)c3)c(F)c2)ccn1` [Entry 142, {[4-(2-cyano(4-pyridyloxy))-2-fluorophenyl]amino}-N-[2-(trifluoromethyl)(4-pyridyl)]carboxamide], the melting point (usually the temperature of the solid-liquid transition) was in the range of 192 to 193 °C. For `N#Cc1cc(Oc2ccc(NC(=O)Nc3ccc4c(c3)OC(F)(F)O4)cc2)ccn1` [Entry 109, N-(2,2-difluorobenzo[d]1,3-dioxolan-5-yl){[4-(2-cyano(4-pyridyloxy))phenyl]amino}carboxamide], the melting point was 199 to 200 °C. Then `CSc1cc(Oc2ccnc(C#N)c2)ccc1NC(=O)Nc1ccc2c(c1)C(F)(F)OC(F)(F)O2` [Entry 140, {[4-(2-cyano(4-pyridyl)oxy)-2-methylthiophenyl]amino}-N-(2,2,4,4-tetrafluorobenzo[3,4-e]1,3-dioxan-6-yl)carboxamide], with 183 to 185 °C; and `CS(=O)(=O)c1cc(Oc2ccnc(C#N)c2)ccc1NC(=O)Nc1ccc2c(c1)C(F)(F)OC(F)(F)O2` [Entry 141, {[4-(2-cyano(4-pyridyl)oxy)-2-(methylsulfonyl)phenyl]amino}-N-(2,2,4,4-tetrafluorobenzo[3,4-e]1,3-dioxan-6-yl)carboxamide], with 229 to 230 °C; and `N#Cc1cc(Oc2ccc(NC(=O)Nc3ccc4c(c3)OC(F)(F)O4)cc2F)ccn1` [Entry 113, N-(2,2-difluorobenzo[d]1,3-dioxolan-5-yl){[4-(2-cyano(4-pyridyloxy))-3-fluorophenyl]amino}carboxamide], with 193.5 to 194.5 °C. As for `N#Cc1cc(Oc2ccc(NC(=O)Nc3ccc4c(c3)C(F)(F)OC(F)(F)O4)c(F)c2)ccn1` [Entry 124, {[4-(2-cyano(4-pyridyloxy))-2-fluorophenyl]amino}-N-(2,2,4,4-tetrafluorobenzo[3,4-e]1,3-dioxan-6-yl)carboxamide], the melting point lay within 169 to 171 °C. The molecule `N#Cc1cc(Oc2ccc(NC(=O)Nc3ccc4c(c3)C(F)(F)OC(F)(F)O4)cc2F)ccn1` [Entry 127, {[4-(2-cyano(4-pyridyloxy))-3-fluorophenyl]amino}-N-(2,2,4,4-tetrafluorobenzo[3,4-e]1,3-dioxan-6-yl)carboxamide] displayed a melting point of 196 to 199.5 °C. For the molecule `N#Cc1cc(Oc2ccc(NC(=O)Nc3ccc4c(c3)C(F)(F)OC(F)(F)O4)c(F)c2F)ccn1` [Entry 129, {[4-(2-cyano(4-pyridyloxy))-2,3-difluorophenyl]amino}-N-(2,2,4,4-tetrafluorobenzo[3,4-e]1,3-dioxan-6-yl)carboxamide], the melting point is 181 to 182 °C. Consider `N#Cc1cc(Oc2ccc(NC(=O)Nc3cc(C(F)(F)F)ccn3)c(C(F)(F)F)c2)ccn1` [Entry 150, {[4-(2-cyano(4-pyridyloxy))-2-(trifluoromethyl)phenyl]amino}-N-[4-(trifluoromethyl)(2-pyridyl)]carboxamide], for which the melting point lay in the range of 209 to 210.5 °C. On to `N#Cc1cc(Oc2ccc(NC(=O)Nc3cc(C(F)(F)F)ccn3)cc2)ccn1` [Entry 152, {[4-(2-cyano(4-pyridyloxy))phenyl]amino}-N-[4-(trifluoromethyl)(2-pyridyl)]carboxamide], for which the melting point is 202 °C. Then `CC(C)(C)c1ccnc(NC(=O)Nc2ccc(Oc3ccnc(C#N)c3)cc2)c1` [Entry 143, N-[4-(tert-butyl)(2-pyridyl)]{[4-(2-cyano(4-pyridyloxy))phenyl]amino}carboxamide], with 216 to 217 °C; and `Cn1ncc2cc(NC(=O)Nc3ccc(Oc4ccnc(C#N)c4)cc3C(F)(F)F)ccc21` [Entry 165, {[4-(2-cyano(4-pyridyloxy))-2-(trifluoromethyl)phenyl]amino}-N-(1-methyl(1H-indazol-5-yl))carboxamide], with 239 to 240 °C; and `N#Cc1cc(Oc2ccc(NC(=O)Nc3cc4ccccc4cn3)cc2)ccn1` [Entry 159, {[4-(2-cyano(4-pyridyloxy))phenyl]amino}-N-(3-isoquinolyl)carboxamide], with 208 to 212 °C. Regarding `N#Cc1cc(Oc2ccc(NC(=O)Nc3cc4ccccc4cn3)c(F)c2)ccn1` [Entry 160, {[4-(2-cyano(4-pyridyloxy))-2-fluorophenyl]amino}-N-(3-isoquinolyl)carboxamide], the melting point lay within 218 to 220 °C. Then `N#Cc1cc(Oc2ccc(NC(=O)Nc3ccc4c(c3)C(F)(F)OC(F)(F)O4)c(C(F)(F)F)c2)ccn1` [Entry 128, {[4-(2-cyano(4-pyridyloxy))-2-(trifluoromethyl)phenyl]amino}-N-(2,2,4,4-tetrafluorobenzo[3,4-e]1,3-dioxan-6-yl)carboxamide], with 220 to 221 °C. Molecule `Cc1ccc2cc(NC(=O)Nc3ccc(Oc4ccnc(C#N)c4)cc3)ccc2n1` [Entry 154, {[4-(2-cyano(4-pyridyloxy))phenyl]amino}-N-(2-methyl(6-quinolyl))carboxamide] showed a melting point of 245.5 °C. As for `CCc1ccnc(NC(=O)Nc2ccc(Oc3ccnc(C#N)c3)cc2)c1` [Entry 153, {[4-(2-cyano(4-pyridyloxy))phenyl]amino}-N-(4-ethyl(2-pyridyl))carboxamide], the melting point lay in the range of 209 to 210 °C.
